The conditions of data set [1]: rat, in vivo, iv; cited from earlier work.
Data set [2] deals with Male C57BL/6 mice. Briefly: Cisplatin-induced nephrotoxicity in mice. Type of data set: in vivo. The procedure: (§1) Male C57BL/6 mice were given a single intraperitoneal injection of 20 mg/kg of cisplatin. Twenty micrograms of PACAP38 were given intraperitoneally 1 hour before the injection of cisplatin and additional doses were given at 24 and 48 hours after the initial dose. The control group of mice was injected intraperitoneally with the same volume of saline as for the injections of cisplatin and PACAP38 on the same schedule. The mice were euthanized 24 hours after the final injection of PACAP38. The serum creatinine levels were determined at sacrifice with isotope dilution liquid chromatography mass spectroscopy/mass spectroscopy. Each value represents the mean plus/minus the standard error of eight determinations. ** p<0.01 compared to the group treated only with cisplatin.
as §1, with “cystatin C” for “creatinine”, “commercial ELISA kits.” for “isotope dilution liquid chromatography mass spectroscopy/mass spectroscopy.”
as §1, with “body weights of the mice” for “serum creatinine levels”, “determined 1-2 hours before the first injection of PACAP38 and” for “determined”, “sacrifice.” for “sacrifice with isotope dilution liquid chromatography mass spectroscopy/mass spectroscopy.”, “p<0.01 and * p<0.05” for “p<0.01”
as §1, with “kidney” for “serum creatinine”, “levels of TNF-α” for “levels”, “commercial ELISA kits.” for “isotope dilution liquid chromatography mass spectroscopy/mass spectroscopy.”
as §1, with “kidney” for “serum creatinine”, “levels of IFN-γ” for “levels”, “commercial ELISA kits.” for “isotope dilution liquid chromatography mass spectroscopy/mass spectroscopy.”, “p<0.01 and * p<0.05” for “p<0.01”
Male C57BL/6 mice were given a single intraperitoneal injection of 20 mg/kg of cisplatin. Twenty micrograms of PACAP38 were given intraperitoneally 1 hour before the injection of cisplatin and additional doses were given at 24 and 48 hours after the initial dose. […]

Data set [3] relates to rat. The settings on record: 48 hours after start, cited from earlier work.
The mark [4] stands for this setting: cisplatin 20 mg/kg i.p., 20 micrograms peptide i.p. 1 h before and 24 and 48 h after, ELISA at sacrifice.

Entries after “also recorded” stand apart in the source; their conditions may differ. Read-outs that look alike come from different tables or passages of the source.

With “[^125I]-PACAP38: 125I-radiolabelled PACAP38 used for half-life in rats”, the “half-life in the bloodstream” value in data set [1] is 5 to 6 min.
For “PACAP38: native human pituitary adenylate cyclase-activating polypeptide, α-amidated peptide with 38 amino acids”, the “cytoprotection against cisplatin-induced nephrotoxicity / kidney injury” value in data set [2] (PACAP38 compared with [Iac1]PACAP38) is given as “approximately equipotent; also recorded: potent cytoprotectants”. In data set [2] (setting [4]), the “cisplatin-induced increase in kidney levels of interferon γ (IFN-γ)” value is on record as “reduction”; the “cisplatin-induced increase in kidney levels of monocyte chemotactic protein 1 (MCP-1, CCL2)” value was “reduction”; the “cisplatin-induced increase in kidney levels of tumor necrosis factor-α (TNF-α)” value is listed as “reduction”; the “cisplatin-induced increase in serum cystatin C levels” value is given as “reduction”. Further, the “cisplatin-induced body weight loss” value in data set [2] (cisplatin 20 mg/kg i.p., 20 micrograms peptide i.p. 1 h before and 24 and 48 h after, at sacrifice) is reported as “reduction; also recorded: significantly reversed the weight lost”. Also, the “cisplatin-induced increase in serum creatinine levels” value in data set [2] (cisplatin 20 mg/kg i.p., 20 micrograms peptide i.p. 1 h before and 24 and 48 h after, at sacrifice 24 h after final injection) is given as “reduction”. The “kidney function of cisplatin-injected mice” value in data set [2] (summary of FIGS. 3 and 4) is on record as “significantly restored kidney function”. Moreover, the “inflammatory response in the kidney of cisplatin-injected mice” value in data set [2] (summary of FIGS. 6-8 (TNF-α, IFN-γ, MCP-1)) was “significantly blunted the inflammatory response”. For the same substance, the “reduction of the infarct volume” value in data set [3] (continuous i.v. infusion beginning 4 hours after start of 2-h MCAO) is “approximately 51%”. Moreover, the “reduction of the infarct volume” value in data set [3] (continuous i.v. infusion beginning 8 hours after start of 2-h MCAO) is recorded as ~22%. The “reduction of the infarct volume” value in data set [3] (continuous i.v. infusion beginning 12 hours after start of 2-h MCAO) is reported as ~12%.
